# According to patent US6759238B1, “Multidrug resistance associated proteins and uses thereof” (priority 1999, dated 2004):
# Several values for one entry are separate records, joined by “and”; a condition that tells them apart may be missing. Identical values can stand only once. Like-named read-outs stand apart in the source and are kept apart here.
# Assays:
# [1] = tested on: AZTMP efflux in CEM-r1 cells; assay: Effect of inhibitors of ATP-coupled transporters on AZTMP efflux; type: cell-based, human; conditions: PGA1 50 μM, DPM 10 μM
# Description: (§1) The suspension was centrifuged at 3,300 rpm for 7 minutes. All but 1 ml of the supernatant medium containing the free drug was aspirated. […] The cell pellet was then washed with ice-cold medium and resuspended at the same concentration in drug-free medium and maintained at 37° C.
# [2] = tested on: AZTMP efflux in CEM-SS cells; assay: as above; type: cell-based, human; conditions: PGA1 50 μM, DPM 10 μM
# Description: as §1
# [3] = tested on: HIV-1IIIB in CEM-r1 cells; assay: Antiviral activity (ED50, RT / p24 assay) in resistant cells; type: cell-based; conditions: Human immunodeficiency virus 1; CEM-r1 cells, HIV
# Excerpt: (§2) As used herein, “pM” means picomolar, “nM” means nanmolar, “μM, means micromolar, “mM” means millimolar, “ul” or “μl” mean microliter, “ml” means milliliter, “l” means liter. […] “IC50” means the inhibitory concentration at which growth is arrested by 50 percent.
# (§3) The two cell lines, CEM-SS and CEM-r1 were infected with HIV-IMB at a multiplicity of 0.01, and cultured for 6 days in the presence and absence of different concentrations of test drugs. The extent of virus production was monitored by in in-house p24 antigen capture assay (50).
# The antiviral effects of the different drugs were monitored by RT assays according to previously described procedures (20, 21). CEM-SS or CEM-r1 cells were infected with an inoculum of HIV-1IIIB standardized to contain 1 RT cpm/cell, and the virus-infected cells were seeded at a concentration of 0.2×10^6 cells/ml in medium containing varying concentrations of PMEA (or other test compounds). After 5 days of incubation, the RT activity of the culture supernates was determined by previously described procedures (22). […] The reaction was initiated by addition of 10 ul of virus-containing tissue culture supernatant. After 1 hr of incubation, 10 ul of the reaction mixture were spotted on a Whatman DE-81 tilter paper, air dried, and washed four times with 2×standard saline citrate (0.3 M NaCl, 0.03 M sodium citrate). The filter papers were dried, transferred to a plastic bag containing scintillation cocktail, sealed, and counted in an LKB Betaplate reader. The drug concentrations yielding half-maximal RT activity (ED50) was calculated as a measure of the antiviral efficacy of the test compounds, using the nonlinear curve-fitting software Enzfitter (Elsevier Biosoft, Cambridge, UK).
# [4] = tested on: CEM-SS cells; assay: Cytotoxicity assay (growth inhibition, Coulter counter); conditions: Homo sapiens, CEM-SS, 24 h, read-out: Drug sensitivity (concentration to inhibit 50% growth)
# Description: (§4) […] Each result is the mean of one representative experiment performed in duplicate. The cultures with the purine nucleosides adenosine, 2′-deoxyadenosine, and arabinosyladenine contained 5 μM deoxycoformycin to inhibit adenosine deaminase activity.
# (§5) All assays were performed in 24-well tissue culture plates (Costar, Cambridge, Ma.). […] At the end of the incubation, the cell concentrations, sizes, and volumes were counted in a Coulter counter (Coulter Electronics, Hialeah. Fla.).
# [5] = as above; conditions: human, CEM-SS cells (wild type, parental)
# Description: as §4, §5
# [6] = Efflux of [3H]-AZT and its metabolites; type: in vitro ADME, human; parameters: half-life: dose or concentration left out as unconfirmed; conditions: human
# Description: (§6) Cells were incubated for 60 minutes with [^3H]-AZT (10 μM) after which they were washed free of radioactivity, resuspended in drug-free medium and the intracellular and the extracellular concentration of [^3H]-AZT were measured. […] At least 80% of the AZTMP present intracellularly in CEM-r1 cells was excreted into the medium in 10 minutes (FIG. 6A).
# (§7) Referring to Table 6 in greater detail, efflux kinetics were studied. Transport analysis of PMEA was conducted as previously described^48. […] The cells were then washed free of radioactivity and then incubated in drug-free medium in the presence of sodium azide and 2-deoxy-D-glucose. At various time periods, the amount of intracellular AZTMP was measured. As reported in Table 6, depletion of ATP led to an inhibition of AZTMP efflux (i.e. a significant accumulation of AZTMP in the CEM-r1 cells but not in the CEM-SS cells).
# (§8) The suspension was centrifuged at 3,300 rpm for 7 minutes. All but 1 ml of the supernatant medium containing the free drug was aspirated. […] The cell pellet was then washed with ice-cold medium and resuspended at the same concentration in drug-free medium and maintained at 37° C. […] An aliquot of the top layer (cell free media) was analyzed for the quantitation of AZT and its metabolites.
# [7] = Efflux of [3H]-AZT and its metabolites; type: in vitro ADME, human; conditions: human
# Description: as §6, §7, §8
# [8] = tested on: HIV-1IIIB in CEM-SS cells; assay: Antiviral activity (ED50, RT / p24 assay) in wild type cells; type: cell-based; conditions: Human immunodeficiency virus 1, WT (CEM-SS) cells
# Excerpt: as §2, §3
# The antiviral effects of the different drugs were monitored by RT assays according to previously described procedures (20, 21). […] After 5 days of incubation, the RT activity of the culture supernates was determined by previously described procedures (22). […] The filter papers were dried, transferred to a plastic bag containing scintillation cocktail, sealed, and counted in an LKB Betaplate reader. The drug concentrations yielding half-maximal RT activity (ED50) was calculated as a measure of the antiviral efficacy of the test compounds, using the nonlinear curve-fitting software Enzfitter (Elsevier Biosoft, Cambridge, UK).
# [9] = tested on: CEM-SS cells; assay: Phosphorylation of AZT; type: in vitro ADME, human; conditions: 10 μM AZT
# Description: (§9) The appearance of the phosphorylated metabolites into the medium was also determined in both the cell lines. AZTDP and AZTTP were not detected in the medium of either CEM-SS or CEM-r1 cells. However, the amount of AZTMP accumulated in the media was approximately 3-fold higher in CEM-r1 cells than in CEM-SS cells.
# (§10) The cartridges were conditioned with 10% MeOH Ammonium Phosphate Buffer (5 mM, pH 4.0). The sample was loaded onto the column. […] AZTDP and AZTTP were eluted with 10% MeOH Ammonium Phosphate Buffer (700 mm, pH 4.6).
# [10] = tested on: CEM-r1 cells; assay: Phosphorylation of AZT; type: in vitro ADME, human; conditions: for Intracellular Concentration / Extracellular Concentration: CEM-r1, 10 μM AZT
# Description: as §9, §10
# [11] = tested on: CEM-SS and CEM-r1 cells; assay: Uptake of [3H]-AZT; type: in vitro ADME, human; conditions: 10 μM and 100 μM, up to 120 seconds
# Description: At various time periods (0, 10, 20, 30, 40, 60, 90, 120 seconds) from the start of the incubation, aliquots of the cell suspension were removed and centrifuged through Nyosil 50 (W. F. Nye, Inc.,New Bedford, Ma.) at 14,000×g for 60 seconds at 4° C.
# [12] = Cytotoxicity assay (growth inhibition, Coulter counter); conditions: human
# Description: (§11) Selection for PMEA resistance was carried out by exposing CEM-SS cells in culture to increasing concentrations of PMEA, over several months.
# (§12) The IC50 values were obtained after 2 days of culture. Each result is the mean of one representative experiment performed in duplicate. The cultures with the purine nucleosides adenosine, 2′-deoxyadenosine, and arabinosyladenine contained 5 μM deoxycoformycin to inhibit adenosine deaminase activity.
# as §5
# [13] = tested on: CEM-r1 cells; assay: as above; conditions: Homo sapiens, 24 h, read-out: Drug sensitivity (concentration to inhibit 50% growth)
# Description: as §11, §12, §5
# [14] = tested on: CEM-SS cells; assay: Efflux of [3H]-AZT and its metabolites; type: in vitro ADME, human; parameters: half-life: dose or concentration left out as unconfirmed; conditions: CEMss, no treatment, after loading with [3H]-AZT
# Description: as §6, §7, §8
# [15] = tested on: CEM-r1 cells; assay: Efflux of [3H]-AZT and its metabolites; type: in vitro ADME, human
# Description: as §6, §7, §8
smiles,measurement,setting,value
"CCCCC[C@H](O)/C=C/[C@H]1C=CC(=O)[C@@H]1CCCCCCC(=O)O [PGA1, prostaglandin A1]",Effect on efflux of AZTMP,[1],markedly inhibited
same,Effect on efflux of AZTMP,[2],no effect
"Cc1cn([C@H]2C[C@H](N=[N+]=[N-])[C@@H](CO)O2)c(=O)[nH]c1=O [AZT, zidovudine]",EC50,[3],0.14 µM
same,IC50,[4],500 µM
same,IC50 at 48 h,[5],500 µM
same,half-life at 10 μM,"[6]; t½ for intracellular AZT, CEM-SS",8.1 min
same,half-life at 10 μM,"[7]; t½ for intracellular AZT, CEM-r1",6.5 min
same,EC50,[8],0.006 µM
same,Intracellular Concentration,[9]; 4 hours,10 µM
same,Intracellular Concentration,[9]; 8 hours,8 µM
same,Intracellular Concentration,[9]; 24 hours,10 µM
same,Intracellular Concentration,[10]; 8 hours,5.2 µM
same,Intracellular Concentration,[10]; 24 hours,4.3 µM
same,Cellular uptake in the two cell lines,[11],similar
same,IC50 at 48 h,[12],3000 µM
same,IC50,[13],3000 µM
"Cc1cn([C@H]2C[C@H](N=[N+]=[N-])[C@@H](COP(=O)(O)O)O2)c(=O)[nH]c1=O [AZTMP, azido-thymidine monophosphate]","Efflux kinetics, AZTMP t½",[14],17.1 min
same,half-life at 10 μM,"[6]; CEMss, Azide + Deoxyglucose, read-out: Efflux kinetics, AZTMP t½",16.3 min
same,half-life,"[6]; CEMss, no treatment, after loading with [3H]-AZT, read-out: Efflux kinetics, AZTMP t½",17.5 min
same,half-life at 10 μM,"[7]; CEMr-1, Azide + Deoxyglucose, read-out: Efflux kinetics, AZTMP t½",18.1 min
same,half-life at 10 μM,"[7]; CEMr-1, no treatment, after loading with [3H]-AZT, read-out: Efflux kinetics, AZTMP t½",4.5 min
same,Intracellular AZTMP excreted into the medium,"[15]; CEM-r1, in 10 minutes",At least 80%
same,"Efflux kinetics, AZTMP t½","[15]; CEMr-1, no treatment, after loading with [3H]-AZT",4 min and 4.3 min
same,Extracellular Concentration,[9]; 4 hours,46 nM
same,Intracellular Concentration,[9]; 4 hours,89 µM
same,Extracellular Concentration,[9]; 8 hours,151 nM
same,Intracellular Concentration,[9]; 8 hours,95 µM
same,Extracellular Concentration,[9]; 24 hours,555 nM
same,Intracellular Concentration,[9]; 24 hours,50 µM
same,"Amount accumulated in the media, CEM-r1 vs CEM-SS",[10]; 10 μM AZT,approximately 3 fold
same,Extracellular Concentration,[10]; 4 hours,132 nM
same,Intracellular Concentration,[10]; 4 hours,13.6 µM
same,Extracellular Concentration,[10]; 8 hours,420 nM
same,Intracellular Concentration,[10]; 8 hours,15.9 µM
same,Extracellular Concentration,[10]; 24 hours,1716 nM
same,Intracellular Concentration,[10]; 24 hours,12.3 µM
